We go through one compound from patent publication US20210255184A1, “Biosensor Device and Methods” (The New Zealand Institute for Plant and Food Research …, priority 2018, published 2021).

The target of the assay is T1, Or22a/Orco (Drosophila melanogaster, UniProt P81909).
T1 construct: his-tag; made in house; host or cells: baculovirus-infected Sf9 cells
T1 sequence (P81909 1-397): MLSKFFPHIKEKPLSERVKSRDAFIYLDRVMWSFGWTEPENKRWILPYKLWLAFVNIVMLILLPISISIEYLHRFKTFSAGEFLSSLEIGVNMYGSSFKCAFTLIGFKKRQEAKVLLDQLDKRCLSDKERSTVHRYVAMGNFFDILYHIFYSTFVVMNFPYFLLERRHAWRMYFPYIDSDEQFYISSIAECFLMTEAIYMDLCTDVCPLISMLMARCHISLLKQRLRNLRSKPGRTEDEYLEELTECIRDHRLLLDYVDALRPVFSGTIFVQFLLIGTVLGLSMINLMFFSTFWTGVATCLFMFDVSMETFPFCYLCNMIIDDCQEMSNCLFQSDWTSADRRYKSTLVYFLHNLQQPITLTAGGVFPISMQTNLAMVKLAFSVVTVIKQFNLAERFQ
T1 sequence (Q9VNB5 1-486 partner): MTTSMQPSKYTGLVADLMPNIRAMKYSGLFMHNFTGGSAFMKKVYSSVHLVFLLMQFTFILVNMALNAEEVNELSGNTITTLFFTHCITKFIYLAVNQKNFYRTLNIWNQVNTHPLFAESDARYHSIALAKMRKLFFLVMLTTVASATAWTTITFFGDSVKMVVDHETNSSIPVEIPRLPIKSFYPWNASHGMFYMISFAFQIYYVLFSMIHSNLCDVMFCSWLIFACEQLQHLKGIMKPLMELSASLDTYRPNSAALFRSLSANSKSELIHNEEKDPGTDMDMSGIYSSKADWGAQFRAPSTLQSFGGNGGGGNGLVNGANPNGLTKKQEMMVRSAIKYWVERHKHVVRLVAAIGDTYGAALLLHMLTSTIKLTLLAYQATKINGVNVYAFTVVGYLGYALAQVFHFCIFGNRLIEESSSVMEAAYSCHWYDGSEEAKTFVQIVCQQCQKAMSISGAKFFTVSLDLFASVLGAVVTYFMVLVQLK
The assay is described as follows: EIS sensor, Or22a/Orco liposomes on gold electrode. The assay is classed as biochemical. As for the experimental part: Prior to their use, liposomes were defrosted on ice and then destabilized by incubating with 0.2% CHAPS for 15 min at room temperature. Then 200 μg of purified odorant receptor^28 was added to 1 mg of liposomes and rotated at 10 rpm for 1 h at room temperature. Excess detergent was removed by four additions of 25 mg of Bio-Beads SM-2 (Bio-Rad, USA) and incubation at 4° C. for 30 min, 2 h, overnight and a further 2 h respectively. The Bio-Beads were removed after each incubation period. The OrX or OrX/Orco integrated liposomes were pelleted by centrifugation at 100,000 g for 1 h, and were resuspended in 500 μL of rehydration buffer. Integration of OrXs and Orco into liposomes was assessed by density gradient ultracentrifugation (DGU) using Accudenz (Accurate Chemical & Scientific Corporation, USA). The integrated liposomes were brought to 40% Accudenz by the addition of an equal volume of 80% Accudenz solution, placed at the bottom of an ultra-centrifugation tube, and overlaid with 30% Accudenz solution, and DGU buffer (25 mM HEPES pH 7.5, 100 mM NaCl, 10% glycerol). The sample was then centrifuged at 100,000 g for 4 h at 4° C. Liposomes will float to the top of the gradient after Accudenz DGU due to their low density.
2 mM MHA was prepared by dissolving 1.36 μl of MHA in 5 ml ethanol (AR grade). The cleaned electrodes were immersed into MHA solution and incubated overnight. The next day, all the electrodes were washed with ethanol and deionised water thoroughly in order to remove the unreacted acid. A 2:1 mol:mol ratio of EDC:NHS (100 mM EDC, 50 mM NHS) was prepared in 2 ml PBS (pH=6.5) solution. Then, the electrodes were covered in 100 μl of this solution at 28° C. for an hour to activate the carboxylic (COOH) groups of the MHA.
PBS solution was prepared by immersing one tablet of PBS in 200 ml of milli-Q water (according to manufacturers instructions) and filtered using 0.2-μm syringe filter. The pH of the prepared buffer solution was measured with a pH meter. […]

`CCCCCC(=O)OC` [methyl hexanoate]: the limit of detection (EIS dose response, ligand 1 aM to 100 μM) was found to be 0.1 fM. The Sensitivity limit (Table 1, * estimated visually from dose response graph) was ~10^−16 M*. Besides, the “Detection Range” value (Table 3) is listed as 10^−16-10^−5 M.
